A word on the IC50: it is the concentration at which inhibition is half-maximal. A lower IC50 goes with inhibition by little substance.

The first experiment concerns the target T1, K103NNY181C mutant reverse transcriptase (Human immunodeficiency virus type 1 group M subtype B, UniProt P04585, K690N/Y768C).
T1 construct: mutations that occur in the reverse transcriptase segment of the pol gene
As to the kind of experiment: Reverse transcriptase enzymatic assay (PicoGreen), K103N/Y181C mutant RT. Type of experiment: biochemical, HIV-1. As to conditions: IC50 mut (nM), mutant (K103N/Y181C) reverse transcriptase, enzymatic assay of Example 24. The procedure, abridged:
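HIV-1 RT (2.5 nM final) pre-incubated 15 min at room temperature with inhibitor, then reacted 50 min at 37 °C with poly rC 45 nM, dG15 4.5 nM, dGTP 3.6 μM in Tris/HCl pH 7.8, 1% DMSO. Final inhibitor 10 μM to 0.508 nM; EDTA-quenched, PicoGreen fluorescence read at 485/520 nm.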
Compound `CC(C)(C)c1ccc(-n2nnnc2SCC(=O)Nc2ccc(NC(=O)Cc3ccsc3)cc2Cl)c(Cl)c1` [Compound 7026] registered an IC50 of 88 nM. This counts as double-digit nanomolar. On the same count and under the same terms, to `C#CCCC(=O)Nc1ccc(NC(=O)CSc2nnnn2-c2ccc(C(C)(C)C)cc2Cl)c(Cl)c1` [Compound 7020] belongs 69 nM. Compound `CC(C)(C)c1ccc(-n2nnnc2SCC(=O)Nc2ccc(NC(=O)Cc3c(Cl)cccc3Cl)cc2Cl)c(Cl)c1` [Compound 7036] showed an IC50 of 712 nM.

`COC(C(=O)Nc1ccc(NC(=O)CSc2nnnn2-c2ccc(C(C)(C)C)cc2Cl)c(Cl)c1)c1ccccc1` (centres unmarked) [Compound 7039] gave an IC50 of 89.5 nM. On the same count and under the same terms, the result for `CC(C)(C)c1ccc(-n2nnnc2SCC(=O)Nc2ccc(NS(=O)(=O)c3ccccc3)cc2Cl)c(Cl)c1` [Compound 7003] reads 607 nM; that for `CC(C)(C)c1ccc(-n2nnnc2SCC(=O)Nc2ccc(NC(=O)Cc3ccc[n+]([O-])c3)cc2Cl)c(Cl)c1` [Compound 7048], 97 nM.

Staying with this experiment, now noted: IC50 mut, K103N/Y181C mutant reverse transcriptase, enzymatic assay of Example 24.
On to `O=C(CSc1nnnn1-c1ccc(C2CC2)cc1Cl)Nc1ccc(C#CC2(CN3CCC(O)CC3)CC2)cc1Cl` [Compound 4096], for which the IC50 was determined as 37 nM. Same read-out and setting: to `CC(C)(C#Cc1ccc(NC(=O)CSc2nnnn2-c2ccc(C3CC3)cc2Cl)c(Cl)c1)OCCN1CCS(=O)(=O)CC1` [Compound 4241] belongs 30.5 nM; to `C#Cc1ccc(NC(=O)CSc2nnnn2-c2ccc(C(C)(C)C)cc2Cl)c(Cl)c1` [Compound 4089], 69 nM. Same read-out and setting: the result for `CC(C)(C#Cc1ccc(NC(=O)CSc2nnnn2-c2ccc(C3CC3)cc2Cl)c(Cl)c1)OCCN` [Compound 4190] reads 59.5 nM; that for `CN(C)CCCC(=O)NC(C)(C)C#Cc1ccc(NC(=O)CSc2nnnn2-c2ccc(C3CC3)cc2Cl)c(Cl)c1F` [Compound 4156], 36.5 nM; that for `CC(C)(N)C#Cc1ccc(NC(=O)CSc2nnnn2-c2cc(C(C)(C)C)cc(Br)c2Cl)c(Cl)c1` [Compound 4221], 108 nM. In turn, `CC(C)(C#Cc1ccc(NC(=O)CSc2nnnn2-c2ccc(C3CC3)cc2Cl)c(Cl)c1)NC(=O)C1(C(=O)O)CC1` [Compound 4233] gave an IC50 of 9.35 nM. Compared with the last compound, the IC50 is about 12-fold lower. Same read-out and setting: to `CC(C)(C#Cc1ccc(NC(=O)CSc2nnnn2-c2ccc(C3CC3)cc2Cl)c(Cl)c1)OCCN1CCC(O)CC1` [Compound 4104] belongs 64.5 nM; to `O=C(CSc1nnnn1-c1ccc(C2CC2)cc1Cl)Nc1ccc(C#CC2(CNCCN3CCCC3)CC2)cc1Cl` [Compound 4095], 98.5 nM.

As for `CC(C)(N)C#Cc1ccc(NC(=O)CSc2nnnn2-c2cc(C(F)(F)F)ccc2Cl)c(Cl)c1` [Compound 4137], the IC50 came to 88 nM. The same measure, in the same setting: to `CC(C)(C#Cc1ccc(NC(=O)CSc2nnnn2-c2ccc(C3CC3)cc2Cl)c(Cl)c1)OCCN1CCCC1=O` [Compound 4182] belongs 58.5 nM. As to `CC(NC(=O)COC(C)(C)C#Cc1ccc(NC(=O)CSc2nnnn2-c2ccc(C(C)(C)C)cc2Cl)c(Cl)c1)C(=O)O` (centres unmarked) [Compound 4053], the IC50 turned out to be 25 nM. On the same count and under the same terms, to `O=C(CSc1nnnn1-c1ccc(C2CC2)cc1Cl)Nc1ccc(C#CC(O)(C(F)(F)F)C(F)(F)F)cc1Cl` [Compound 4249] belongs 203 nM; to `CC(C)(C#Cc1ccc(NC(=O)CSc2nnnn2-c2cc(C(C)(C)C)cc(Br)c2Cl)c(Cl)c1)NC(=O)c1cc[n+]([O-])cc1` [Compound 4223], 30 nM; to `CC(C)(O)C#Cc1ccc(NC(=O)CSc2nnnn2-c2ccc(C3CC3)cc2Cl)c(Br)c1` [Compound 4078], 13.5 nM.

`CC(C)(C#Cc1ccc(NC(=O)CSc2nnnn2-c2ccc(C(C)(C)C)cc2Cl)c(Cl)c1)OCC(=O)NCc1ccco1` [Compound 4037] came in with an IC50 of 66 nM.

`CC(C)(C#Cc1ccc(NC(=O)CSc2nnnn2-c2ccc(C3CC3)cc2Cl)c(Cl)c1)NC(=O)c1ccc[n+]([O-])c1` [Compound 4191] showed an IC50 of 4.75 nM. Against the preceding compound, the IC50 is about 14-fold lower. For `CC(C)(C#Cc1ccc(NC(=O)CSc2nnnn2-c2cc(C(F)(F)F)ccc2Cl)c(Cl)c1)NC(=O)c1ncccn1` [Compound 4139], the IC50 stood at 20.5 nM. Against the preceding compound, the IC50 is about 4.3-fold higher. Same read-out and setting: the result for `CC(C)(C#Cc1ccc(NC(=O)CSc2nnnn2-c2ccc(C(C)(C)C)cc2Cl)c(Cl)c1)OCC(=O)NC1(C(=O)O)CC1` [Compound 4036] reads 36 nM; that for `CCC(N)(C#Cc1ccc(NC(=O)CSc2nnnn2-c2ccc(C3CC3)cc2Cl)c(Cl)c1)CC` [Compound 4068], 38.5 nM.

Take `CC(C)(C#Cc1ccc(NC(=O)CSc2nnnn2-c2ccc(C(C)(C)C)cc2Cl)c(Cl)c1)OCC(=O)Nc1ccccc1` [Compound 4044]: the IC50 was determined as 296 nM. This IC50 lies about 7.7-fold higher than the previous one. Still for that read-out and setting: to `CC(C)(C#Cc1ccc(NC(=O)CSc2nnnn2-c2cc(C3CC3)cc(C(F)(F)F)c2Cl)c(Cl)c1)C(=O)O` [Compound 4159] belongs 136 nM. The same measure, in the same setting: to `Cc1cc(C(F)(F)F)cc(-n2nnnc2SCC(=O)Nc2ccc(C#CC(C)(C)O)cc2Cl)c1Cl` [Compound 4030] belongs 21 nM; to `CC(C)(O)C#Cc1ccc(NC(=O)CSc2nnnn2-c2cc3c(cc2Cl)CCC3)c(Cl)c1` [Compound 4065], 13.5 nM; to `CC(C)(C#Cc1ccc(NC(=O)CSc2nnnn2-c2ccc(CC3CC3)cc2Cl)c(Cl)c1)NC(=O)c1cc[n+]([O-])cc1` [Compound 4247], 19 nM. In turn, `CN(C)CCCNC(=O)C(C)(C)C#Cc1ccc(NC(=O)CSc2nnnn2-c2ccc(CC3CC3)cc2Cl)c(Cl)c1` [Compound 4245] had an IC50 of 459 nM. This IC50 lies about 24-fold higher than the previous one. Still for that read-out and setting: to `CC(C)(C#Cc1ccc(NC(=O)CSc2nnnn2-c2ccc(C3CC3)cc2Cl)c(Cl)c1F)OCCOc1ccncc1` [Compound 4165] belongs 67.5 nM; to `CC(C)(C#Cc1ccc(NC(=O)CSc2nnnn2-c2ccc(C3CC3)cc2Cl)c(Cl)c1F)OCCN1CCC(F)(F)C1` [Compound 4217], 90.5 nM; to `CC(C)(N)C#Cc1ccc(NC(=O)CSc2nnnn2-c2cc(C(C)(C)C)ccc2Cl)c(Cl)c1` [Compound 4201], 52 nM. Same read-out and setting: to `CC(C)(C#Cc1ccc(NC(=O)CSc2nnnn2-c2ccc(C3CC3)cc2Cl)c(Cl)c1)NC(=O)c1csnn1` [Compound 4107] belongs 15 nM.

Still in this experiment, the particulars now being: IC50 mut, mutant reverse transcriptase, enzymatic assay of Example 24.
`CC(C)(C)c1ccc(-n2nnnc2SCC(=O)Nc2ccc(OCC(=O)N3CCOCC3)cc2Cl)c(Cl)c1` [Compound 5004] registered an IC50 of 41 nM. On the same count and under the same terms, the result for `CC(C)(C)c1ccc(-n2nnnc2SCC(=O)Nc2ccc(C(=O)NCCc3ccncc3)cc2Cl)c(Cl)c1` [Compound 6023] reads 22 nM; that for `Cc1cc(C)c(-n2nnnc2SCC(=O)Nc2ccc(-c3ccc(C(C)(C)C(=O)O)cc3)cc2Cl)c(Cl)c1` [Compound 2025], 42 nM. Still for that read-out and setting: to `Cc1cc(C)c(-n2nnnc2SCC(=O)Nc2ccc(-c3ccc(CC(=O)O)cc3)cc2Cl)c(Cl)c1` [Compound 2021] belongs 20 nM; to `O=C(CSc1nnnn1-c1ccc(C2CC2)cc1Cl)Nc1ccc(C(=O)NCc2cccc[n+]2[O-])cc1Cl` [Compound 6038], 64.5 nM; to `O=C(CSc1nnnn1-c1ccc(C2CC2)cc1Cl)Nc1ccc(-c2ccc(OCCN3CCCCC3)cc2)c(F)c1Cl` [Compound 2051], 30.5 nM. Regarding `CC(C)(C)c1ccc(-n2nnnc2SCC(=O)Nc2ccc(-c3ccc(OCC(=O)O)c(Cl)c3)cc2Cl)c(Cl)c1` [Compound 3013], the IC50 stood at 24 nM.

`CC(CC(=O)O)NC(=O)c1ccc(NC(=O)CSc2nnnn2-c2ccc(C(C)(C)C)cc2Cl)c(Cl)c1` (centres unmarked) [Compound 6015]: the IC50 worked out at 39 nM. In turn, `Cc1ccc(-n2nnnc2SCC(=O)Nc2ccc(-c3ccc(C(=O)O)cc3)cc2Cl)c(Cl)c1` [Compound 2002] displayed an IC50 of 53 nM. Still for that read-out and setting: to `CC(C)(C)c1ccc(-n2nnnc2SCC(=O)Nc2ccc(C(=O)NCc3ccc(N)cc3)cc2Cl)c(Cl)c1` [Compound 6026] belongs 51 nM; to `Cc1ccc(-c2cn[nH]c2OCC(=O)Nc2ccc(-c3ccc(CC(=O)O)cc3)cc2Cl)c(Cl)c1` [Compound 1010], 156 nM. On the same count and under the same terms, the result for `CNC(=O)c1ccc(NC(=O)CSc2nnnn2-c2ccc(C)cc2Cl)c(Cl)c1` [Compound 3007] reads 290 nM; that for `COC(=O)/C=C/c1ccc(NC(=O)CSc2nnnn2-c2ccc(C)cc2Cl)c(Cl)c1` [Compound 3005], 305 nM; that for `CC(C)(C)c1ccc(-n2nnnc2SCC(=O)Nc2ccc(-c3ccc(OCCN4CCOCC4)cc3)cc2Cl)c(Cl)c1` [Compound 2022], 42 nM.

With `CC(C)(C)c1ccc(-n2nnnc2SCC(=O)Nc2ccc(OCC(=O)NCCc3ccncc3)cc2Cl)c(Cl)c1` [Compound 5024], inhibition was half-maximal at 66 nM (IC50). Compound `CN1CCN(S(=O)(=O)c2ccc(NC(=O)CSc3nnnn3-c3ccc(C4CC4)cc3Cl)c(Cl)c2)CC1` [Compound 3036] had an IC50 of 88 nM. On the same count and under the same terms, the result for `CC(C)(C)c1ccc(-n2nnnc2SCC(=O)Nc2ccc(OCC(=O)NCc3ccc(O)c(O)c3)cc2Cl)c(Cl)c1` [Compound 5019] reads 78 nM. On the same count and under the same terms, the result for `CC(C)(C)c1ccc(-n2nnnc2SCC(=O)Nc2ccc(S(=O)(=O)NCc3ccccc3)cc2Cl)c(Cl)c1` [Compound 3028] reads 440 nM; that for `CC(C)(C)c1ccc(-n2nnnc2SCC(=O)Nc2ccc(-c3ccc(OCCN4CCCCC4)cc3)cc2Cl)c(Cl)c1` [Compound 2039], 28 nM; that for `CC(C)(C)c1ccc(-n2nnnc2SCC(=O)Nc2ccc(C(=O)NCc3ccc(O)c(O)c3)cc2Cl)c(Cl)c1` [Compound 6019], 36 nM. Turning to `Cc1nnc(SCC(=O)Nc2ccc(-c3ccc(OCC(=O)O)cc3)cc2Cl)n1-c1ccc(C(C)(C)C)cc1Cl` [Compound 1001], the IC50 was determined as 25.5 nM. This IC50 and that of the compound before are within 1.5-fold of each other.

Take `CC(C)(C)c1ccc(-n2nnnc2SCC(=O)Nc2ccc(C(=O)Nc3ccccc3O)cc2Cl)c(Cl)c1` [Compound 6011]: the IC50 is 26 nM.

In turn, `CC(C)(C)c1ccc(-n2nnnc2SCC(=O)Nc2ccc(C(=O)NCCc3ccc(O)c(O)c3)cc2Cl)c(Cl)c1` [Compound 6020] yielded an IC50 of 51 nM. This IC50 is about 2-fold higher than that of the compound before.

For the origin of these results see patent US7517998B2, “Non nucleoside reverse transcriptase inhibitors” (priority 2004, dated 2009).
